IC50 data for one compound are collected here from publication PMC6318789 (Journal of the American Chemical Society, 2015).

The target in this test is p300 (Homo sapiens, UniProt Q09472). Type of test: binding.

SMILES strings stand for the structures.

Sequence of p300 (Q09472 323-423): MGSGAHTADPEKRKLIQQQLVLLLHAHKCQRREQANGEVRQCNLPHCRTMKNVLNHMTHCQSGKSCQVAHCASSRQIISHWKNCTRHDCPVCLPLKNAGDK
Sequence of p300 (Q16665 786-826 partner): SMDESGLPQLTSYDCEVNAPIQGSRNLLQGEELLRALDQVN

`COc1ccc(C2(O)N=C3N=CC=C4c5ccccc5N=C2N43)cc1` (racemic) [compound 1, eudistidine A] yielded an IC50 of roughly 75 µM.

As a reminder, the IC50 is the point on the concentration scale where inhibition reaches its midpoint.
